Legend:
[1] = target: T1, interaction between Hsp90 and the Hop's TPR2A domain (Homo sapiens, UniProt P07900); assay: BIACORE competition: Hsp90 pre-mixed with peptide, added to immobilized TPR2A; assay type: binding; conditions: for Binding of Hsp90 (%): to immobilized TPR2A
T1 construct: histidine tag; made in house; host or cells: Hsp90: E. coli BL21 (pDEST17-Hsp90)
Source text: It was examined whether the TPR peptide designed could compete specifically with the interaction between Hsp90, which is essential for the accurate folding of some carcinogenic protein including survivin in cancer cells, and the Hop's TPR2A domain.

U937 [2] = assay: cells; assay type: cell-based, human
Experimental: (§1) A total of 3×10^3 cells per well were inoculated onto a 96 well plate, and incubated in a medium containing 10% FBS with 100 μl of a peptide diluted stepwise at 37° C. for 48 to 72 hours. The survival rate of the cells was measured by using WST-8 solution (Cell Count Reagent SF; Nacalai Tesque, Inc.).

Caki-1 [3] = assay type: cell-based, human; conditions: Kidney cancer Caki-1; read-out: Anti-tumor activity, IC50 (μM) ± SD
Caki-1 [4] = assay type: cell-based, human; conditions: Caki-1, 68 μM
Experimental: The TPR peptide or the TPR scramble peptide was mixed with a commercially available transfection reagent (Profect-P2 or, Lipofectamine LTX) and the mixture was left to incubate at room temperature for 20 minutes, to form liposome before the complex was added to cancer cells (Caki-1 (kidney cancer cells)); the survival rate of the cells was then measured by using WST-8 solution (Cell Count Reagent SF; Nacalai Tesque, Inc.) and the results were compared with those such as in the case of the TPR scramble peptide or the liposome alone.

U937 [5] = assay: Penetration experiment, confocal microscope, U937; assay type: cell-based, human; conditions: U937, TAMRA-labeled peptide 10 μM, 1 hour
Experimental: TPR-TAMRA (TAMRA labeled body) or Antp-TPR-TAMRA (TAMRA labeled body) was added to 1×10^6 peripheral blood mononuclear cells (PBMCs), which were prepared from U937 cells, a mouse leukemia cell strain EL4 or mouse peripheral blood, at a final concentration of 10 μM, and the mixture was cultured for 1 hour. The peptide incorporated in the cell or influx of the medium into the cell after peptide penetration was observed under a confocal microscope (Olympus FV1000 (Olympus)), using a medium containing calcein.
TPR-TAMRA (TAMRA labeled body) or Antp-TPR-TAMRA (TAMRA labeled body) was added to 1×10^6 U937 cells to a final concentration of 10 μM; the mixture was cultured for one hour; and then the behavior of the peptide incorporated into the cell or the influx of the medium into the cell after peptide penetration was observed under a confocal microscope (Olympus FV1000 (Olympus)), using a calcein-containing medium.

LNCap = assay type: cell-based, human; conditions: Prostate cancer LNcap; read-out: Anti-tumor activity, IC50 (μM) ± SD
HEK293 = assay: cells; assay type: cell-based, human; conditions: Normal cell HEK; read-out: Anti-tumor activity, IC50 (μM) ± SD
Experimental: (§2) A total of 3×10^3 cells were inoculated per well on a 96 well plate and cultured in a medium containing 10% FBS for 24 hours, and incubated with 100 μl of a peptide having a gradual increase in concentration at 37° C. for 48 to 72 hours. The survival rate of the cells was measured by using WST-8 solution (Cell Count Reagent SF; Nacalai Tesque, Inc.).
as §1

MRC-5 = assay type: cell-based, human; conditions: Normal cell MRC5; read-out: Anti-tumor activity, IC50 (μM) ± SD
Experimental: as §2

T47D = assay type: cell-based, human; conditions: Breast cancer T47D; read-out: Anti-tumor activity, IC50 (μM) ± SD
Experimental: as §2

BXPC-3 = assay type: cell-based, human; conditions: Pancreatic cancer Bxpc3; read-out: Anti-tumor activity, IC50 (μM) ± SD

CC[C@H](C)[C@H](NC(=O)[C@H](CCCNC(=N)N)NC(=O)[C@H](C)NC(=O)[C@H](Cc1ccc(O)cc1)NC(=O)[C@H](C)NC(=O)[C@@H](N)CCCCN)C(=O)NCC(=O)N[C@@H](CC(N)=O)C(=O)N[C@@H](CO)C(=O)N[C@@H](Cc1ccc(O)cc1)C(=O)N[C@@H](Cc1ccccc1)C(=O)N[C@@H](CCCCN)C(=O)O [TPR]
inhibition of the interaction between Hsp90 and TPR2A ([1]; increasing peptide concentration): exerts an influence on the interaction between Hsp90 and TPR2A
Binding of Hsp90 (%) ([1]; peptide 1.411 μM): 88.19%
Binding of Hsp90 (%) ([1]; peptide 14.11 μM): 84.60%
Binding of Hsp90 (%) ([1]; peptide 141.1 μM): 72.26%
Binding of Hsp90 (%) ([1]; peptide 282.2 μM): 29.75%
Binding of Hsp90 (%) ([1]; peptide 705.5 μM): 0%
Cell Survival Rate (%) (U937 [2]): 92.79%
Anti-cancer activity (% relative to wild-type peptide) (U937 [2]; U937, wild-type peptide = 100%): 9.39%
Decrease in cell survival rate (% relative to wild-type peptide) (U937 [2]; U937, wild-type peptide = 100%): 25.04%
IC50 (Caki-1 [3]): > 352 µM
killing effect after introduction with transfection reagent (Caki-1 [4]): observed when the TPR peptide was introduced
intracellular penetration (U937 [5]): did not penetrate into the cell
IC50 (LNCap): > 352 µM
IC50 (HEK293): > 352 µM
IC50 (MRC-5): > 352 µM
IC50 (T47D): > 352 µM
IC50 (BXPC-3): > 352 µM

— patent US8546320B2, “Hsp9O-targeted anti-cancer chimeric peptide” (Kyoto University, priority 2008, dated 2013)
